{"source": "paper PMC2913153", "about": "(Journal of the American Chemical Society, 2010)", "key": {"FPR": {"system": "FPR", "details": "compared with fMLF; result in words; ref [13]; cited from earlier work"}, "FPR-negative U937 cells": {"system": "FPR-negative U937 cells", "experiment": "Chemotaxis of FPR-negative U937 cells", "format": "cell-based", "details": "result in words"}}, "data": [{"substance": "N-formyl-norleucine-leucine-phenylalanine [Compound 1]", "values": [{"measurement": "chemoattractant potency relative to fMLF", "setting": "FPR", "result": "less potent than fMLF"}, {"measurement": "chemotactic activity in FPR-negative U937 cells", "setting": "FPR-negative U937 cells", "result": "None of the compounds induce chemotactic activity"}]}]}
